Publication PMC12670395, “Structural Rationalization of IPMK Inhibitor Potency” (Journal of Medicinal Chemistry, 2025)
Several values for one entry are separate records, joined by “and”; a condition that tells them apart may be missing. Equal entries are not always repeated.

Key:
human IPMK [1] = target: T1, human IPMK (Homo sapiens, UniProt Q8NFU5); test: IPMK kinase activity assay (33P-radiolabeled HPLC assay); format: biochemical; settings: 33P-1,3,4,5-IP4 to InsP5, 1.0 mM ATP, 2 nM IPMK; mean with standard error, n = 3 (compound 1 n = 5)
T1 sequence (Q8NFU5 with tags, fused parts or gaps): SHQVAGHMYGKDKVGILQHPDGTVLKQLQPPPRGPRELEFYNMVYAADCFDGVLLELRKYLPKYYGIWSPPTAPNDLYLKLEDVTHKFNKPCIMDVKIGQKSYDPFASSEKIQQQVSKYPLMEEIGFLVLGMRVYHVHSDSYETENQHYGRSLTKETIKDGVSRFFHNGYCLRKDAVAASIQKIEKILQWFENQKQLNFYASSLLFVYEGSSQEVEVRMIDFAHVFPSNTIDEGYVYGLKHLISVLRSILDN
Protocol: (§1) For all enzyme assays, a serial dilution of the enzyme was performed in the kinase assay to determine the linear range of the enzyme concentration to be used.
(§2) We prepared ^33P-1,3,4,5-IP4 by incubating 1,4,5-IP3, ^33P-ATP, and IPMK, isolated the product with a 30 K d MW cutoff filter. Each reaction contained trace amounts (4,00,000 disintegrations per minute (dpm)) of ^33P-1,3,4,5-IP4 in a 100 μL incubation containing 20 mM HEPES (pH 7.2), 100 mM KCl, 3.5 mM MgCl2, 20 μM EDTA, 1.0 mM ATP, 1 μM 1,3,4,5-IP4, plus test compound in DMSO (or vehicle control) plus 2 nM IPMK. Assays were analyzed by HPLC, using a PartiSphere SAX 120, 5 μm, 4.6 × 125 mm HPLC column with a 250 μL injection volume. The elution gradient was generated by mixing Buffer A (1 mm Na2EDTA) with Buffer B (Buffer A plus 2.5 M NH4H2PO4, pH 3.9) and monitored by a β-RAM 6 in-line scintillation detector. A 1.0 mL/min elute was mixed with 0.5 or 2.5 mL/min monoflow scintillation liquid for ^33P or ^3H, respectively. Radiochromatography data were collected and analyzed using Laura software (v6.1.2.36).

human IPMK [2] = test: as above; format: biochemical; settings: for IP6K1/IPMK: ratio of IP6K1 IC50 to IPMK IC50; for selectivity for IPMK over IP6K1: from IC50 values
Protocol: as §1, §2

human IP6K1 = target: T2, human IP6K1 (Homo sapiens, UniProt Q92551); test: IP6K kinase activity assay (enzyme-coupled, malachite green Pi release); format: biochemical; settings: 100 nM IP6K1, 25 μM InsP6, 500 μM ATP, 37 °C; mean with standard error, n = 3
T2 construct: made in house
Protocol: as §1
An enzyme-coupled assay was used to measure IP6K activity. Enzyme activity was assayed at 37 °C in 50 μL of reaction mixtures containing 100 nM IP6K1, 5.0 μM human Dipp1, 20 mM HEPES (pH 7.2), 100 mM KCl, 3.5 mM MgCl2, 20 μM EDTA, 25 μM InsP6, and 500 μM ATP for 60–120 min. Pi release was determined with a malachite green colorimetric assay. Reactions were quenched by the addition of 100 μL of phosphate detection reagent (36:1 v/v of 2.6% sodium molybdate in 2.5 M HCl: 0.126% malachite green chloride). Phosphate (Pi) release was quantified from the absorbance at 620 nm by using appropriate standards.

IP3K-A = IP3K-A (Homo sapiens, UniProt P23677); test: IP3K kinase activity assay ([3H]-InsP3, HPLC); format: biochemical; settings: 1.0 μM 1,4,5-InsP3, 1.0 mM ATP, 0.25 nM IP3K-A; standard error, n = 3
Protocol: as §1
Each reaction contained 1.0 μM [^3H]-1,4,5-InsP3 (approximately 30,000 dpm; American Radiolabeled Chemicals, Inc., ART 0270) in a 100 μL incubation containing 20 mM HEPES (pH 7.2), 100 mM KCl, 3.5 mM MgCl2, 20 μM EDTA, 1.0 mM ATP, 1.0 μM 1,4,5-InsP3, plus test compound in DMSO (or vehicle control), and 0.25 nM IP3K-A. Reactions were quenched after 60 min by the addition of 2 volumes of 0.2 M NH4H2PO4, pH 3.9 and 20 mM EDTA and stored at 27 °C. Assays were analyzed by HPLC, using a PartiSphere SAX 120 Å, 5 μm, 4.6 × 125 mm HPLC column with a 250 μL injection volume. The elution gradient was generated by mixing Buffer A (1 mm Na2EDTA) with Buffer B (Buffer A plus 2.5 M NH4H2PO4, pH 3.9) and monitored by a β-RAM 6 in-line scintillation detector. A 1.0 mL/min elute was mixed with 0.5 or 2.5 mL/min monoflow scintillation liquid for ^33P or ^3H, respectively. Radiochromatography data were collected and analyzed using Laura software (v6.1.2.36).

human IPMK [3] = target: T1, human IPMK; test: Isothermal titration calorimetry (ITC); format: binding; settings: 15 μM IPMK in cell, 150 μM inhibitor in syringe, 25 °C, pH 7.2
Protocol: Isothermal calorimetry experiments were performed using a MicroCal PEAQ-ITC (Malvern Panalytical) with 15 μM recombinant human IPMK in the sample cell and 150 μM inhibitor 1 in the syringe, each of which was maintained at 25 °C in buffer containing 20 mM Tris-HCl, pH 7.2, 150 mM KCl, 0.05 mM EDTA, and 0.8 mM MgCl2. The sample cell (volume = 204 μL) and the syringe were cleaned before each run. Thermograms were constructed from 20 injections, each of which involved 2.0 μL of ligand delivered for 4.0 s, with an equilibration time of 150–300 s between each injection. The stirring speed was set to 750 rpm. Data were fitted to a single binding site model using the analysis software provided by the manufacturer, as supported by X-ray crystallography. At least three runs were performed.

[4] = tested on: human U251-MG glioblastoma cells; design: method as in other studies (number not given); settings: ref other studies (number not given); cited from earlier work
[5] = design: method as in recent work from another group (number not given); settings: mice, intraperitoneal injection; ref recent work from another group (number not given); cited from earlier work

T2 sequence (Q92551 whole entry): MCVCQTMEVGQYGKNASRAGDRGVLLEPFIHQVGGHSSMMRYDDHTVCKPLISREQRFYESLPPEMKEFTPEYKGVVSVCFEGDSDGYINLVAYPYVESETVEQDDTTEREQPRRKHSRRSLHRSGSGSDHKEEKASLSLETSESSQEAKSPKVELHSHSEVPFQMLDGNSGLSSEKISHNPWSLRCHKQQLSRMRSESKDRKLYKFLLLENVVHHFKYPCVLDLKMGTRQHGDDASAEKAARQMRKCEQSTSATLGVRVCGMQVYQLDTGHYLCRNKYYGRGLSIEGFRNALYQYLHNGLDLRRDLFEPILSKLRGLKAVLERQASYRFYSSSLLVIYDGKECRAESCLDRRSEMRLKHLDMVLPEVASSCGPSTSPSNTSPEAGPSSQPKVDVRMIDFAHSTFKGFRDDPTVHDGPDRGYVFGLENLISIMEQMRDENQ
IP3K-A, sequence (P23677 whole entry): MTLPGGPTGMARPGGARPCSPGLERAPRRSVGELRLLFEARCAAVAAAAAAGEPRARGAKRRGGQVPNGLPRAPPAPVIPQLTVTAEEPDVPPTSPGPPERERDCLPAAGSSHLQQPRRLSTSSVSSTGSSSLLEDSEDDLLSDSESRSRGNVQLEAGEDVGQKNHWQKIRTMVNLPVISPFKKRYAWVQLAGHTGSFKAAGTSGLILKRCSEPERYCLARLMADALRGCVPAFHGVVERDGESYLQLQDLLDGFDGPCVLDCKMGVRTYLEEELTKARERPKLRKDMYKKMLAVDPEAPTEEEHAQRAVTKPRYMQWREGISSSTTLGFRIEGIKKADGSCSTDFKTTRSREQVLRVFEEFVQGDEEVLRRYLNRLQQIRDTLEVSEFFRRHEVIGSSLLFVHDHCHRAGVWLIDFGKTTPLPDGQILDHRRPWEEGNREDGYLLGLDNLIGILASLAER

Row | IC50 (human IPMK [1]) | IP6K1/IPMK (human IPMK [2]) | IC50 (human IP6K1) | selectivity for IPMK over IP6K1 (human IPMK [2]) | IC50 (IP3K-A) | Kd (human IPMK [3]) | SMILES | cellular growth [4] | inositol phosphate metabolism [4] | clearance, half-life, and volume of distribution [5]
1 | 0.0025 ± 0.0003 µM | 9.2 | – | – | – | – | FC(F)(F)c1ccc(-c2onc3ccc(-c4nnn[nH]4)cc23)cc1 [Compound 7] | – | – | –
2 | 0.0019 ± 0.0002 µM | 13 | 0.024 ± 0.006 µM | – | – | – | Cc1cc(C)cc(-c2onc3ccc(-c4nnn[nH]4)cc23)c1 [Compound 4] | – | – | –
3 | 0.0011 µM and 0.00113 µM | 36 | 0.0401 ± 0.004 µM | – | – | – | O=C(Nc1cccc(-c2onc3ccc(-c4nnn[nH]4)cc23)c1)C1CCCC1 [Compound 15] | – | – | –
4 | 0.0081 ± 0.002 µM | 5.6 | 0.045 ± 0.007 µM | – | – | – | Cc1cc(C)cc(-c2onc3ccc([C@H]4C[C@@H]4C(=O)O)cc23)c1 [Compound 2] | – | – | –
5 | 0.0128 ± 0.002 µM | 11.4 | 0.146 ± 0.023 µM | approximately 10 fold | 8 µM | 0.011 µM | Cc1cc(C)cc(-c2onc3ccc(/C=C/C(=O)O)cc23)c1 [Compound 1] | – | – | –
6 | 0.0034 ± 0.0005 µM | 8.8 | – | – | – | – | c1cc(OC2CCNCC2)cc(-c2onc3ccc(-c4nnn[nH]4)cc23)c1 [Compound 12] | – | – | –
7 | 0.003 µM and 0.0028 µM | – | – | – | – | – | c1cc(-c2onc3ccc(-c4nnn[nH]4)cc23)cc(C2CCN(C3CCC3)CC2)c1 [Compound 14] | decrease | decrease | reasonable

More lines, now with the values behind:

Row | SMILES | IC50 (human IPMK [1]) | IP6K1/IPMK (human IPMK [2]) | IC50 (human IP6K1) | selectivity for IPMK over IP6K1 (human IPMK [2]) | IC50 (IP3K-A) | Kd (human IPMK [3]) | cellular growth [4] | inositol phosphate metabolism [4] | clearance, half-life, and volume of distribution [5]
8 | Cc1cc(C)cc(-c2onc3ccc(C(=O)O)cc23)c1 [Compound 3] | 0.029 ± 0.005 µM | 3 | – | – | – | – | – | – | –
9 | O=C(Nc1cccc(-c2onc3ccc(-c4nnn[nH]4)cc23)c1)C1CC1 [Compound 11] | 0.00099 µM and 0.001 µM | 52 | 0.052 µM and 0.0518 µM | 50 fold | – | – | – | – | –
10 | c1ccc(-c2onc3ccc(-c4nnn[nH]4)cc23)cc1 [Compound 6] | 0.0038 ± 0.0004 µM | 10 | 0.038 ± 0.008 µM | 10 fold | – | – | – | – | –
11 | FC(F)(F)Oc1ccc(-c2onc3ccc(-c4nnn[nH]4)cc23)cc1 [Compound 8] | 0.0033 ± 0.0004 µM | 13 | 0.059 ± 0.014 µM | – | – | – | – | – | –
12 | O=C(Nc1ccc(-c2onc3ccc(-c4nnn[nH]4)cc23)cc1)C1CC1 [Compound 10] | 0.0035 ± 0.0004 µM | 10 | 0.0358 µM and 0.036 µM | – | – | – | – | – | –
13 | c1ccc(Oc2ccc(-c3onc4ccc(-c5nnn[nH]5)cc34)cc2)cc1 [Compound 9] | 0.011 ± 0.002 µM | 115 | 1.27 µM and 1.3 µM | – | – | – | – | – | –
14 | Clc1cnc(Oc2cccc(-c3onc4ccc(-c5nnn[nH]5)cc34)c2)c(Cl)c1 [Compound 13] | 0.0095 ± 0.002 µM | 1.9 | 0.019 ± 0.004 µM | – | – | – | – | – | –
